In US20240360178A1, “MACROCYCLIC IMMUNOMODULATORS” (Bristol-Myers Squibb Company, priority 2021, published 2024):
Positions of bridges follow the written chain, without caps; N, C: chain ends. Non-standard residues stand in square brackets, D forms with d. Residues, ends and D or L forms follow the SMILES beside them. ξ: configuration not given here. Phe(4-COOH) = N[C@@H](Cc1ccc(C(=O)O)cc1)C(=O)O; Bip = N[C@@H](Cc1ccc(-c2ccccc2)cc1)C(=O)O; Phe(3-Me) = Cc1cccc(C[C@H](N)C(=O)O)c1; NMeF = CN[C@@H](Cc1ccccc1)C(=O)O; hArg = N=C(N)NCCCC[C@H](N)C(=O)O; ξW = NC(Cc1c[nH]c2ccccc12)C(=O)O; 3Pal = N[C@@H](Cc1cccnc1)C(=O)O; 4Pal = N[C@@H](Cc1ccncc1)C(=O)O; Cha = N[C@@H](CC1CCCCC1)C(=O)O; Cit = NC(=O)NCCC[C@H](N)C(=O)O; NMeL = CN[C@@H](CC(C)C)C(=O)O; ξR = N=C(N)NCCCC(N)C(=O)O; NMeA = CN[C@@H](C)C(=O)O; Orn = NCCC[C@H](N)C(=O)O; Dab = NCC[C@H](N)C(=O)O; Dap = NC[C@H](N)C(=O)O; ξV = CC(C)C(N)C(=O)O; Sar = CNCC(=O)O

Target: T1, human PD-1 (Jurkat-PD-1 cells) / PE-labeled human PD-L1-Ig (Homo sapiens, UniProt Q15116)
T1 construct: expressed in transfected cells; host or cells: Jurkat cell line over-expressing human PD-1
T1 sequence (Q15116 25-288): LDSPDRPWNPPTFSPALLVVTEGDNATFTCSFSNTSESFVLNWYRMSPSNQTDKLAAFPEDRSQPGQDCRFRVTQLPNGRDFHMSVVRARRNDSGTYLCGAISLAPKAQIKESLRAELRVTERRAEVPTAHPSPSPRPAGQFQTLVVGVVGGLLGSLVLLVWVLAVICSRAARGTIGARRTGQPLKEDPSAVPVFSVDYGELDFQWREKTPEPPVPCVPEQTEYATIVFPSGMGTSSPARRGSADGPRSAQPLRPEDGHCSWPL
Assay: Jurkat-PD-1 Cell Binding High-Content Screening Assay (CBA); Jurkat hPD1-PDL1 assay
Conditions: Jurkat cell line over-expressing human PD-1; PE-labeled PD-L1-Ig 20 nM final; compound incubated 2 hours at 37° C.; read-out: Jurkat HPD1-PDL1 IC50
Method in brief: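 Jurkat cells over-expressing human PD-1, seeded in DMEM with 10% fetal calf serum, were preincubated with compound for 2 hours at 37° C. PE-labeled human PD-L1-Ig was then added at 20 nM final, and cell-bound fluorescence was read by high-content imaging.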

In the case of `CC(C)C[C@@H]1NC(=O)[C@H](CCCNC(=N)N)NC(=O)[C@H](CC(C)C)N(C)C(=O)[C@H](C)N(C)C(=O)[C@H](CCCNC(=N)N)NC(=O)[C@H](Cc2ccc(-c3ccccc3)cc2)NC(=O)[C@H](C(C)C)NC(=O)[C@H](Cc2c[nH]c3ccccc23)NC(=O)[C@H](CC(=O)O)NC(=O)[C@H](Cc2ccc(O)cc2)NC(=O)[C@H](Cc2ccccc2)NC(=O)CSC[C@@H](C(=O)NCC(N)=O)NC(=O)[C@H](CO)NC(=O)[C@H](C(C)C)NC1=O` [Example 1281] ({CH2CO}-FYDWV[Bip]R[NMeA][NMeL]RLVSCG-NH2; thioether N-14), the IC50 is reported as 460 nM.

Molecule `CC(C)C[C@@H]1NC(=O)[C@H](Cc2c[nH]c3ccccc23)NC(=O)[C@H](CC(=O)O)NC(=O)[C@H](Cc2ccc(C(=O)O)cc2)NC(=O)[C@H](CN)NC(=O)CSC[C@@H](C(=O)N[C@@H](C)C(N)=O)NC(=O)[C@H](CO)NC(=O)[C@H](C(C)C)NC(=O)[C@H](CC(C)C)NC(=O)[C@H](CC(N)=O)NC(=O)[C@H]2CCCN2C(=O)[C@H](C)N(C)C(=O)[C@H](C(C)C)NC(=O)[C@H](Cc2ccc(-c3ccccc3)cc2)NC1=O` [Example 1390] ({CH2CO}-[Dap][Phe(4-COOH)]DWL[Bip]V[NMeA][dP]NLVSCA-NH2; thioether N-14) has an IC50 of 20 nM.

In the case of `CC(C)C[C@@H]1NC(=O)[C@H](CCCCNC(=N)N)NC(=O)[C@H](Cc2ccccc2)N(C)C(=O)[C@H](C)N(C)C(=O)[C@H](CCCNC(=N)N)NC(=O)[C@H](Cc2ccc(-c3ccccc3)cc2)NC(=O)[C@H](C(C)C)NC(=O)[C@H](Cc2c[nH]c3ccccc23)NC(=O)[C@H](CC(=O)O)NC(=O)[C@H](Cc2ccc(O)cc2)NC(=O)[C@H](Cc2ccccc2)NC(=O)CSC[C@@H](C(=O)NCC(N)=O)NC(=O)[C@H](CO)NC(=O)[C@H](C(C)C)NC1=O` [Example 1279] ({CH2CO}-FYDWV[Bip]R[NMeA][NMeF][hArg]LVSCG-NH2; thioether N-14), the IC50 is reported as 320 nM.

For `CC(C)C[C@@H]1NC(=O)[C@H](Cc2c[nH]c3ccccc23)NC(=O)[C@H](CC(=O)O)NC(=O)[C@H](Cc2ccc(O)cc2)NC(=O)[C@H](Cc2ccccc2)NC(=O)CSC[C@@H](C(=O)NCC(N)=O)NC(=O)[C@H](CO)NC(=O)[C@H](C(C)C)NC(=O)[C@H](CC(C)C)NC(=O)[C@H](CC(N)=O)NC(=O)[C@H](Cc2ccccc2)N(C)C(=O)[C@H](C)N(C)C(=O)[C@H](C(C)C)NC(=O)[C@H](Cc2ccc(-c3ccccc3)cc2)NC1=O` [Example 1205] ({CH2CO}-FYDWL[Bip]V[NMeA][NMeF]NLVSCG-NH2; thioether N-14), the IC50 was 440 nM.

For `CC(C)C[C@@H]1NC(=O)C(CCCNC(=N)N)NC(=O)[C@H](Cc2ccccc2)N(C)C(=O)[C@H](C)N(C)C(=O)[C@H](CCCNC(=N)N)NC(=O)[C@H](Cc2ccc(-c3ccccc3)cc2)NC(=O)[C@H](C(C)C)NC(=O)[C@H](Cc2c[nH]c3ccccc23)NC(=O)[C@H](CC(=O)O)NC(=O)[C@H](Cc2ccc(O)cc2)NC(=O)[C@H](Cc2ccccc2)NC(=O)CSC[C@@H](C(=O)NCC(N)=O)NC(=O)[C@H](CO)NC(=O)[C@H](CCC(=O)O)NC1=O` (stereo partly drawn) [Example 1218] ({CH2CO}-FYDWV[Bip]R[NMeA][NMeF][ξR]LESCG-NH2; thioether N-14), the IC50 was 230 nM.

`CC(C)C[C@@H]1NC(=O)[C@H](Cc2c[nH]c3ccccc23)NC(=O)[C@H](CC(=O)O)NC(=O)[C@H](Cc2ccc(O)cc2)NC(=O)[C@H](Cc2ccccc2)NC(=O)CSC[C@@H](C(=O)NCC(N)=O)NC(=O)[C@H](CO)NC(=O)[C@H](C(C)C)NC(=O)[C@H](CC(C)C)NC(=O)[C@H](CCN)NC(=O)[C@H]2CCCN2C(=O)[C@H](CCCN)NC(=O)[C@H](C(C)C)NC(=O)[C@H](Cc2ccc(-c3ccccc3)cc2)NC1=O` [Example 1423] ({CH2CO}-FYDWL[Bip]V[Orn][dP][Dab]LVSCG-NH2; thioether N-14) showed an IC50 of 100 nM.

Molecule `CC(C)C[C@@H]1NC(=O)[C@H](CCCNC(=N)N)NC(=O)[C@H](Cc2ccccc2)N(C)C(=O)[C@H](C)N(C)C(=O)[C@H](CCCNC(=N)N)NC(=O)[C@H](Cc2ccc(-c3ccccc3)cc2)NC(=O)[C@H](C(C)C)NC(=O)[C@H](Cc2c[nH]c3ccccc23)NC(=O)[C@H](CC(=O)O)NC(=O)[C@H](Cc2ccc(O)cc2)NC(=O)[C@H](Cc2ccc(O)cc2)NC(=O)CSC[C@@H](C(=O)NCC(N)=O)NC(=O)[C@H](CO)NC(=O)[C@H](C(C)C)NC1=O` [Example 1068] ({CH2CO}-YYDWV[Bip]R[NMeA][NMeF]RLVSCG-NH2; thioether N-14) has an IC50 of 170 nM.

For `CC(C)C[C@@H]1NC(=O)[C@H](CC(N)=O)NC(=O)CN(C)C(=O)[C@H](CCCNC(=N)N)NC(=O)[C@H](C(C)C)NC(=O)[C@H](Cc2ccc(-c3ccccc3)cc2)NC(=O)[C@H](C(C)C)NC(=O)C(Cc2c[nH]c3ccccc23)NC(=O)[C@H](CC(=O)O)NC(=O)[C@H](Cc2ccc(O)cc2)NC(=O)[C@H](Cc2ccccc2)NC(=O)CSC[C@@H](C(=O)NCC(N)=O)NC(=O)[C@H](CO)NC(=O)[C@H](C(C)C)NC1=O` (stereo partly drawn) [Example 1229] ({CH2CO}-FYD[ξW]V[Bip]VR[Sar]NLVSCG-NH2; thioether N-14), the IC50 was 440 nM.

`CC(C)C[C@@H]1NC(=O)[C@H](CCCNC(=N)N)NC(=O)[C@H](Cc2ccccc2)N(C)C(=O)[C@H](CCCNC(N)=O)NC(=O)[C@H](CCCNC(=N)N)NC(=O)[C@H](Cc2ccc(-c3ccccc3)cc2)NC(=O)[C@H](C(C)C)NC(=O)[C@H](Cc2c[nH]c3ccccc23)NC(=O)[C@H](CC(=O)O)NC(=O)[C@H](Cc2ccc(O)cc2)NC(=O)[C@H](Cc2ccccc2)NC(=O)CSC[C@@H](C(=O)NCC(N)=O)NC(=O)[C@H](CO)NC(=O)[C@H](C(C)C)NC1=O` [Example 1276] ({CH2CO}-FYDWV[Bip]R[Cit][NMeF]RLVSCG-NH2; thioether N-14) showed an IC50 of 840 nM.

`CC(C)C[C@@H]1NC(=O)[C@H](C)NC(=O)[C@H]2CCCN2C(=O)[C@H](C)N(C)C(=O)[C@H](CCC(=O)O)NC(=O)[C@H](Cc2ccc(-c3ccccc3)cc2)NC(=O)[C@H](CC(C)C)NC(=O)[C@H](Cc2c[nH]c3ccccc23)NC(=O)[C@H](CC(=O)O)NC(=O)[C@H](Cc2ccc(C(=O)O)cc2)NC(=O)[C@H](Cc2cccnc2)NC(=O)CSC[C@@H](C(=O)N[C@@H](C)C(N)=O)NC(=O)[C@H](CO)NC(=O)[C@H](C(C)C)NC1=O` [Example 1085] ({CH2CO}-[3Pal][Phe(4-COOH)]DWL[Bip]E[NMeA][dP]ALVSCA-NH2; thioether N-14) showed an IC50 of 240 nM.

Molecule `CC(C)C[C@@H]1NC(=O)[C@H](Cc2c[nH]c3ccccc23)NC(=O)[C@H](CC(=O)O)NC(=O)[C@H](Cc2ccc(O)cc2)NC(=O)[C@H](Cc2ccccc2)NC(=O)CSC[C@@H](C(=O)N[C@@H](CCCCN)C(N)=O)NC(=O)[C@H](CO)NC(=O)[C@H](C(C)C)NC(=O)[C@H](CC(C)C)NC(=O)[C@H](CC(N)=O)NC(=O)CN(C)C(=O)[C@H](C)N(C)C(=O)[C@H](C(C)C)NC(=O)[C@H](Cc2ccc(-c3ccccc3)cc2)NC1=O` [Example 1253] ({CH2CO}-FYDWL[Bip]V[NMeA][Sar]NLVSCK-NH2; thioether N-14) has an IC50 of 710 nM.

In the case of `Cc1cccc(C[C@@H]2NC(=O)[C@H](CC(=O)O)NC(=O)[C@H](Cc3ccc(C(=O)O)cc3)NC(=O)[C@H](Cc3ccncc3)NC(=O)CSC[C@@H](C(=O)N[C@@H](C)C(N)=O)NC(=O)[C@H]([C@@H](C)O)NC(=O)[C@H](C(C)C)NC(=O)[C@H](CC3CCCCC3)NC(=O)[C@H](CCN)NC(=O)[C@H](Cc3ccccc3)N(C)C(=O)[C@H](CCCN)NC(=O)[C@H](CCC(=O)O)NC(=O)[C@H](Cc3ccc(-c4ccccc4)cc3)NC(=O)C(C(C)C)NC2=O)c1` (stereo partly drawn) [Example 1444] ({CH2CO}-[4Pal][Phe(4-COOH)]D[Phe(3-Me)][ξV][Bip]E[Orn][NMeF][Dab][Cha]VTCA-NH2; thioether N-14), the IC50 is reported as 50 nM.
